Measurements taken from US20240254087A1, “SELECTIVE, PARTIAL, AND ARRESTIN-BIASED 5-HT2A AGONISTS WITH UTILITY IN VARIOUS DISORDERS” (Saint Joseph's University, priority 2021, published 2024).
Read-outs that look alike come from different tables or passages of the source.

Legend:
5-HT2A [1] = assay: Ca2+ flux assay, 5-HT2A; format: cell-based, human; conditions: Gq/11 Ca2+ mobilization; higher number = skewed towards 5-HT2A
Description: (§1) Cell lines were maintained in DMEM containing 10% FBS, 10 μg/mL Blasticidin (Invivogen), and 100 μg/mL Hygromycin B (GoldBio). At least 20-24 hours before the assay, receptor expression was induced with tetracycline ([…]) and cells were seeded into 384-well poly-L-lysine-coated black plates at a density of 7,500 cells/well in DMEM containing 1% dialyzed FBS. On the day of the assay, the cells were incubated for 1 h at 37° C. with Fluo-4 Direct dye (Invitrogen, 20 μl/well) reconstituted in drug buffer (20 mM HEPES-buffered HBSS, pH 7.4) containing 2.5 mM probenecid. Drug dilutions were prepared at 5X final concentration in McCorvy buffer (20 mM HEPES-buffered HBSS, 0).1% BSA, 0.01% ascorbic acid pH 7.4). After dye load, cells were allowed to equilibrate to room temperature for 15 minutes, and then placed in a FLIPR^TETRA fluorescence imaging plate reader (Molecular Devices). Fluorescence for the FLIPR^TETRA were programmed to read baseline fluorescence for 10 s (1 read/s), and afterward 5 μl of drug per well was added and read for a total of 5-10 min (1 read/s). Fluorescence in each well was normalized to the average of the first 10 reads for baseline fluorescence, and then either maximum-fold peak increase over basal or area under the curve (AUC) was calculated. […] Data was plotted and non-linear regression was performed using “log(agonist) vs. response” in Graphpad Prism 8 to yield Emax and EC50 parameter estimates.

male C57BL/6J mice = assay: Head-twitch response (HTR) in mice; format: in vivo, mouse; conditions: for ED50: Mus musculus
Description: Male C57BL/6J mice (6-8 weeks old) from Jackson Labs (Bar Harbor, ME, USA) were used for the behavioral experiments. The mice were housed on a reversed light-dark cycle (lights on at 1900 h, off at 0700 h) in an AAAC-approved vivarium at the University of California San Diego. Mice were housed up to four per cage in a climate-controlled room and with food and water provided ad libitum except during behavioral testing. Testing was performed between 1000 and 1800 h (during the dark phase of the light-dark cycle). The studies were conducted in accordance with National Institutes Health (NIH) guidelines and were approved by the University of California San Diego Institutional Animal Care and Use Committee.
The mice were allowed to recover from the magnet implantation surgeries for at least 1 week prior to behavioral testing. HTR experiments were conducted in a well-lit room, and the mice were allowed to habituate to the room for at least 1 h prior to testing. Head twitches was assessed in a 12-cm diameter glass cylinder surrounded by a magnetometer coil. Coil voltage was low-pass filtered (2 kHz), amplified, and digitized (20-kHz sampling rate) using a Powerlab/8SP with LabChart v 7.3.2 (ADInstruments, Colorado Springs, CO, USA). […] HTR counts were analyzed using one-way ANOVAs. Dunnett's test was used for post hoc comparisons.

5-HT2A [2] = target: T1, 5-HT2A (Homo sapiens, UniProt P28223); assay: Ca2+ flux assay, 5-HT2A; format: cell-based; set-up: expressed in transfected cells
Description: as §1

5-HT2C [3] = target: T2, 5-HT2C (Homo sapiens, UniProt P28335); assay: Ca2+ flux assay, 5-HT2C; format: cell-based; set-up: expressed in transfected cells
T2 sequence (P28335 33-458): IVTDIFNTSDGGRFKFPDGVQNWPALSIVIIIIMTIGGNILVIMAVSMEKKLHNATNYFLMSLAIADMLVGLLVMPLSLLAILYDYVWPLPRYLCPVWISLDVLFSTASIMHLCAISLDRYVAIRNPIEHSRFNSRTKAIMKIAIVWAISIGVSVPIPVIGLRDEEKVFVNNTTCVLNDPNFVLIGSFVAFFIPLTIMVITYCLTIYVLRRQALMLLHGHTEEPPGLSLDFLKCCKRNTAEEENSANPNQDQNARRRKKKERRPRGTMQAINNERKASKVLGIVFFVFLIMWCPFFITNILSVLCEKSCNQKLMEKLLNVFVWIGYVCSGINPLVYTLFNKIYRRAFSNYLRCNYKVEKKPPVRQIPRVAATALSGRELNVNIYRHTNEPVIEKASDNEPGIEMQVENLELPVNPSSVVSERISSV
Description: as §1

5-HT2B [4] = target: T3, 5-HT2B (Homo sapiens, UniProt P41595); assay: Ca2+ flux assay, 5-HT2B; format: cell-based; set-up: expressed in transfected cells; conditions: Ca2+ flux
Description: as §1

5-HT2A [5] = target: T1, 5-HT2A; assay: cell-based; set-up: expressed in transfected cells; host or cells: HEK293T, transient; conditions: for Emax: read-out: 5-HT2A β-arrestin Emax (% 5-HT), BRET, mean ± SEM; for EC50: read-out: 5-HT2A β-arrestin recruitment pEC50 (converted)
Description: (§2) After at least 18-24 hours, transfected cells were plated in poly-lysine coated 96-well white clear bottom cell culture plates in DMEM containing 1% dialyzed FBS at a density of 25-40,000 cells in 200 μL per well and incubated overnight. After approximately 20-24 hours, media was decanted and cells were washed with 60 μL of drug buffer (1×HBSS, 20 mM HEPES, pH 7.4), followed by 60 μL of drug buffer and pre-incubated in a humidified atmosphere at 37° C. before receiving drug stimulation. Drug stimulation was induced by adding 30 μL of a solution of drug (3X) diluted in McCorvy buffer (1×HBSS, 20 mM HEPES, pH 7.4, supplemented with 0.3% BSA fatty acid free, 0.03% ascorbic acid) and plates were incubated at the indicated time and temperature. Fifteen minutes before reading, 10 μL of the RLuc substrate, either coelenterazine h for β-Arrestin recruitment BRET^1 or coelenterazine 400a for Gq dissociation BRET^2 (Prolume/Nanolight, 5 μM final concentration) was addedper well. […] The BRET ratios of fluorescence/luminescence were calculated per well and were plotted as a function of drug concentration using Graphpad Prism 8 (Graphpad Software Inc., San Diego, CA).

5-HT2A [6] = target: T1, 5-HT2A; assay: cell-based; set-up: expressed in transfected cells; host or cells: HEK293T, transient; conditions: for Emax: read-out: 5-HT2A Gq Emax (% 5-HT), BRET, mean ± SEM
Description: as §2

5-HT2B [7] = target: T3, 5-HT2B; assay: BRET Gq dissociation, 5-HT2B; format: cell-based; set-up: expressed in transfected cells; host or cells: HEK293T, transient; conditions: for Emax: read-out: 5-HT2B Gq Dissociation (BRET) EMAX ± SEM (%5-HT)
Description: After at least 18-24 hours, transfected cells were plated in poly-lysine coated 96-well white clear bottom cell culture plates in DMEM containing 1% dialyzed FBS at a density of 25-40,000 cells in 200 μL per well and incubated overnight. After approximately 20-24 hours, media was decanted and cells were washed with 60 μL of drug buffer (1×HBSS, 20 mM HEPES, pH 7.4), followed by 60 μL of drug buffer and pre-incubated in a humidified atmosphere at 37° C. before receiving drug stimulation. Drug stimulation was induced by adding 30 μL of a solution of drug (3X) diluted in McCorvy buffer (1×HBSS, 20 mM HEPES, pH 7.4, supplemented with 0.3% BSA fatty acid free, 0.03% ascorbic acid) and plates were incubated at the indicated time and temperature. Fifteen minutes before reading, 10 μL of the RLuc substrate, either coelenterazine h for β-Arrestin recruitment BRET^1 or coelenterazine 400a for Gq dissociation BRET^2 (Prolume/Nanolight, 5 μM final concentration) was addedper well. Plates were read for luminescence at 485 nm and fluorescent eYFP emission at 530 nm for BRET^1 and at 400 nm and fluorescent GFP2 emission at 510 nm for BRET2 at 1 second per well using a Mithras LB940 (Berthold). The BRET ratios of fluorescence/luminescence were calculated per well and were plotted as a function of drug concentration using Graphpad Prism 8 (Graphpad Software Inc., San Diego, CA).

5-HT2C [8] = target: T2, 5-HT2C; assay: BRET Gq dissociation, 5-HT2C; format: cell-based; set-up: expressed in transfected cells; host or cells: HEK293T, transient; conditions: for Emax: read-out: 5-HT2C Gq Dissociation (BRET) EMAX ± SEM (%5-HT)
Description: as §2

[9] = read-out: HTR ED50 μmol/kg (95% CI), SC, except DOI and 25D-NBOMe IP
[10] = read-out: HTR ED50 mg/kg (95% CI), SC, except DOI and 25D-NBOMe IP
[11] = SC, except DOI and 25D-NBOMe IP
[12] = BRET, mean ± SEM, read-out: 5-HT2A Gq dissociation pEC50 (converted)
[13] = read-out: 5-HT2C Gq Dissociation (BRET) pEC50 ± SEM (converted)
[14] = read-out: 5-HT2B Gq Dissociation (BRET) pEC50 ± SEM (converted)

T1 sequence (P28223 whole entry): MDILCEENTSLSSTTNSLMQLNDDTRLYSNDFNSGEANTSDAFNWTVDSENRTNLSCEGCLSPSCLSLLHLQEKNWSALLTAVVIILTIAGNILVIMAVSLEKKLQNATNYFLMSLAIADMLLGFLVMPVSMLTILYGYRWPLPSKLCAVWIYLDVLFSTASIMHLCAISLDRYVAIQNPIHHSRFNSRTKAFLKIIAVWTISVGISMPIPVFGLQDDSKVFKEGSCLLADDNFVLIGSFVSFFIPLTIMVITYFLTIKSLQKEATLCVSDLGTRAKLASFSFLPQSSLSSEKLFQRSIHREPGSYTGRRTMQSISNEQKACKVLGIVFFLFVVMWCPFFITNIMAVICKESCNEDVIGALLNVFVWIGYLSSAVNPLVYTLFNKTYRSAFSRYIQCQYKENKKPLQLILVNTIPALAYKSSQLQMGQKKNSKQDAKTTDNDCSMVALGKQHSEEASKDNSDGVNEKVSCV
T3 sequence (P41595 whole entry): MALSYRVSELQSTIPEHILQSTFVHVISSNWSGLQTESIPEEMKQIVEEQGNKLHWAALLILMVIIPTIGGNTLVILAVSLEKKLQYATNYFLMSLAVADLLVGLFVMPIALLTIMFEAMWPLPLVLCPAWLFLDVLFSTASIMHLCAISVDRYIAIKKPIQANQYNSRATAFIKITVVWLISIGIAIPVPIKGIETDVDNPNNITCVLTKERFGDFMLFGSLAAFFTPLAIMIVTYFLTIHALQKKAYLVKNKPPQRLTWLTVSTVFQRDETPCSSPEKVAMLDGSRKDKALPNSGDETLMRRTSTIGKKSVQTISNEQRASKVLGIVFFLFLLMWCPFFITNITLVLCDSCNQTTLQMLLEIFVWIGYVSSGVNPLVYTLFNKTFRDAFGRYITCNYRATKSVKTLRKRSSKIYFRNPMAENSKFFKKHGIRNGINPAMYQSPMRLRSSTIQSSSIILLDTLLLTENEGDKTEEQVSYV

Structure (SMILES)	Max HTR response during a 30-min assessment (maximum counts ÷ baseline response) (male C57BL/6J mice)	ED50 (male C57BL/6J mice; [10])	5-HT2B Gq Dissociation (BRET) EMAX ± SEM (%5-HT) (5-HT2B [7])	5-HT2B Gq Dissociation (BRET) pEC50 ± SEM (5-HT2B [7])	Emax (5-HT2A [5])	Emax (5-HT2A [6])	Emax (5-HT2B [7])	Induction of the HTR in mice (in words) (male C57BL/6J mice)	Emax (5-HT2C [8])	EC50 (5-HT2A [5]; BRET, mean ± SEM)	EC50 (5-HT2A [6]; [12])	EC50 (5-HT2C [8]; [13])	other results
COc1cc([N+](=O)[O-])c(OC)cc1CCNCc1ccccc1O [25N-NBOH (3), 2-({[2-(2,5-dimethoxy-4-nitrophenyl)ethyl]amino}methyl)phenol]	8.8-fold increase	0.07 mg/kg	–	–	–	–	–	–	–	–	–	–	5-HT2A/5-HT2c Selectivity Factor ΔLog(Emax/EC50) (5-HT2A [1]): 4.9; ED50 (male C57BL/6J mice; [9]): 0.19 µmol/kg; EC50 (5-HT2A [2]; 5-HT2A (pEC50 ± SEM), Ca2+ flux): 0.316 nM; Emax (5-HT2A [2]; read-out: 5-HT2A Emax % 5-HT, Ca2+ flux): 87 ± 2%; EC50 (5-HT2C [3]; 5-HT2C EC50, nM): 1.78 nM; Emax (5-HT2C [3]; read-out: 5-HT2C Emax % 5-HT): 100 ± 2%; 5-HT2B EC50, nM (5-HT2B [4]): No activity; Emax (5-HT2B [4]; read-out: 5-HT2B Emax % 5-HT): < 10%
COc1cc(CCN)c(OC)cc1I [Compound 2C-I, reference compound]	13.8-fold increase	–	101.0 ± 2.1 %5-HT	7.72 ± 0.07	–	–	–	–	–	–	–	–	5-HT2A β-arrestin Emax (% 5-HT) (5-HT2A [5]; BRET, mean ± SEM): 74.3 ± 1.6 % 5-HT; 5-HT2A β-arrestin recruitment pEC50 (5-HT2A [5]; BRET, mean ± SEM): 8.25 ± 0.07; 5-HT2A Gq Emax (% 5-HT) (5-HT2A [6]; BRET, mean ± SEM): 93.4 ± 1.4 % 5-HT; 5-HT2A Gq dissociation pEC50 (5-HT2A [6]; BRET, mean ± SEM): 8.83 ± 0.05; HTR ED50 μmol/kg (95% CI) (male C57BL/6J mice; [11]): 2.42 (1.46-4.02) μmol/kg; HTR ED50 mg/kg (95% CI) (male C57BL/6J mice; [11]): 0.83 (0.50-1.38) mg/kg; 5-HT2C Gq Dissociation (BRET) EMAX ± SEM (%5-HT) (5-HT2C [8]): 106.9 ± 1.5 %5-HT; 5-HT2C Gq Dissociation (BRET) pEC50 ± SEM (5-HT2C [8]): 9.34 ± 0.05
COc1cc(OC)c(OC)cc1CCNCc1cccc(I)c1 [(53), N-(3-iodobenzyl)-2-(2,4,5-trimethoxyphenyl)-ethan-1-amine]	1.1-fold increase	> 30 mg/kg	–	–	82.7 ± 5.4%	50.1 ± 1.9%	20.3 ± 2.8%	failed to induce the HTR	91.5 ± 3.2%	–	–	–	EC50 (5-HT2B [7]): 0.724 nM; EC50 (5-HT2C [8]): 15.1 nM
COc1cc2c(cc1CCNCc1cccc3ccccc13)OCO2 [(39), [2-(6-methoxy-2H-1,3-benzodioxol-5-yl)ethyl][(naphthalen-1-yl)methyl]amine]	1.4-fold increase	> 30 mg/kg	No activity	No activity	80.1 ± 2.5%	26.4 ± 2%	–	failed to induce a HTR	90.5 ± 2.3%	5.89 nM	15.5 nM	17 nM	–
COc1cc(OC)c(OC)cc1CCNCc1ccccc1-c1cccs1 [(59), N-(2-(thiophen-2-yl)benzyl)-2-(2,4,5-trimethoxyphenyl)-ethan-1-amine]	1.6-fold increase	> 30 mg/kg	No activity	No Activity	100 ± 3.5%	34.9 ± 1.6%	–	lacked a HTR	–	8.51 nM	24 nM	–	5-HT2C Gq Dissociation (BRET) EMAX ± SEM (%5-HT) (5-HT2C [8]): No Activity; 5-HT2C Gq Dissociation (BRET) pEC50 ± SEM (5-HT2C [8]): No Activity
COc1cc(OC)c(OC)cc1CCNCc1ccccc1-c1ccc(O)cc1 [(64)]	2.1-fold increase	> 30 mg/kg	–	–	80.5 ± 5.5%	43.6 ± 2.5%	29.2 ± 10.6%	–	80.6 ± 9.8%	11.7 nM	–	1700 nM	EC50 (5-HT2A [6]): 617 nM; EC50 (5-HT2B [7]; [14]): 3020 nM
COc1cc(CCNCc2ccccc2OC)c(OC)cc1I [Compound 25I-NBOMe, reference compound]	16.0-fold increase	0.078 mg/kg	–	–	137 ± 3.7%	–	78.6 ± 2.6%	–	124 ± 3.1%	0.525 nM	0.355 nM	0.0977 nM	5-HT2A Gq Emax (% 5-HT) (5-HT2A [6]; BRET, mean ± SEM): 99.8 ± 1.2 % 5-HT; EC50 (5-HT2B [7]; [14]): 3.39 nM; ED50 (male C57BL/6J mice; [9]): 0.17 µmol/kg
